This is an account of results in publication PMC7577153, “Identification of Small-Molecule Inhibitors Targeting Porphyromonas gingivalis Interspecies Adherence and Determination of Their In Vitro and In Vivo Efficacies” (Antimicrobial Agents and Chemotherapy, 2020).

Marks after values point to notes of the source that are not given here.

One series concerns J774A.1 cells. The conditions noted are these: positive control, 2 mM hydrogen peroxide, 4 h.
In another series the test system is TIGK cells. The conditions noted are these: positive control, 2 mM hydrogen peroxide, 4 h.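 Note: flow cytometry of cells stained with PE annexin V plus Sytox green, with untreated or 0.1% DMSO-exposed cells as negative controls.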
A further series has as its system HL60 cells. The following applies: HL60, positive control, 2 mM hydrogen peroxide, 4 h.

Method for HL60 cells: (§1) The mouse macrophage cell line J774A.1 was grown in Dulbecco’s modified Eagle medium (DMEM) (Thermo Fisher Scientific, Waltham, MA) supplemented with 4.5 g/ml glucose, 10% fetal bovine serum (FBS), and 100 U/ml penicillin-streptomycin (Sigma-Aldrich, St. Louis, MO). HL60 (ATCC CCL240) cells were obtained from the American Type Culture Collection and cultured in Iscove’s modified Dulbecco’s medium (Sigma-Aldrich) supplemented with 20% fetal bovine serum (FBS) (Sigma-Aldrich).
(§2) The apoptotic activity of the compounds was determined using the phycoerythrin (PE) annexin V/dead cell apoptosis kit with Sytox green for flow cytometry (Invitrogen, Carlsbad, CA). Cells were grown in 12-well flat-bottom microtiter plates at an initial density 2 × 10^5 cells in 1.5-ml medium per well for 24 h. Following the incubation period, spent medium was replaced with fresh medium containing the desired concentration of the test compound and incubated for another 18 h. After trypsinization, cells were harvested by centrifuging at 250 × g for 4 min, and the cell pellet was suspended in 100 μl of binding buffer supplemented with 1 μl Sytox and 5 μl annexin V, followed by incubation at 37°C for 15 min. Samples were then diluted by adding 400-μl binding buffer, and flow cytometry was performed using a FACScalibur flow cytometer (Becton, Dickinson, Franklin Lakes, NJ), measuring the fluorescence emissions at 530 nm and 575 nm.
Method for J774A.1 cells: as §1, §2
Method for TIGK cells: as §1, §2

Take `OO` [Medium/H2O2, hydrogen peroxide, reference compound]: in the series on J774A.1 cells, the “Early apoptosis (%)” value amounted to 1.3%, the “Late apoptosis/necrosis (%)” value is on record as 34.7% and the “Live cells (%)” value is given as 41.9%. In the series on TIGK cells, the “Early apoptosis (%)” value was 4.9%, the “Late apoptosis/necrosis (%)” value is listed as 21.9* % and the “Live cells (%)” value amounted to 56.6%. In the series on HL60 cells, the “Early apoptosis (%)” value was 12.3%, the “Late apoptosis/necrosis (%)” value is on record as 31.4% and the “Live cells (%)” value is listed as 52.7%.
